Measurements reported in patent publication US20090186929A1, “Method and agent for inducing apoptosis/cell death in leukemia cells” (U.S. DEPARTMENT OF VETERANS AFFAIRS, priority 2003, published 2009).
Counter-ions that a name gives are not always drawn. Like-named read-outs stand apart in the source and are kept apart here.

What was measured:
[1] = test system: CLL cells; experiment: Cytotoxicity of NOS inhibitors for CLL cells in vitro (MTS assay); settings: for EC50: read-out: Mean ED50 ± S.E.M. (CLL cell cytotoxicity)
Excerpt: We worked to optimize the culture of CLL cells (Reference 86). […] These were all tested with and without albumin, fetal bovine serum, human serum, glutamine, insulin, transferrin, selenium, and mercaptoethanol.
Toxicity could be detected by disappearance of cells from the culture (reduction in overall cell number), uptake of trypan blue, propidium iodide uptake (flow cytometry), MTS (4,5-dimethylthiazol-2-yl)-5-(3-carboxymethoxyphenyl)-2-(4-sulfophenyl)-2H-tetrazolium, inner salt) assay (cellular respiration), and several parameters of apoptosis [annexin V assay, DNA content […], and TUNEL assay].

[2] = target: T1, purified human NOS1 (Homo sapiens, UniProt P29475); experiment: Inhibition of purified NOS1 enzyme activity; type: biochemical; settings: mean ± SEM, N = 3
T1 construct: determined using purified recombinant full-length human NOS1 and NOS2
T1 sequence (P29475 whole entry): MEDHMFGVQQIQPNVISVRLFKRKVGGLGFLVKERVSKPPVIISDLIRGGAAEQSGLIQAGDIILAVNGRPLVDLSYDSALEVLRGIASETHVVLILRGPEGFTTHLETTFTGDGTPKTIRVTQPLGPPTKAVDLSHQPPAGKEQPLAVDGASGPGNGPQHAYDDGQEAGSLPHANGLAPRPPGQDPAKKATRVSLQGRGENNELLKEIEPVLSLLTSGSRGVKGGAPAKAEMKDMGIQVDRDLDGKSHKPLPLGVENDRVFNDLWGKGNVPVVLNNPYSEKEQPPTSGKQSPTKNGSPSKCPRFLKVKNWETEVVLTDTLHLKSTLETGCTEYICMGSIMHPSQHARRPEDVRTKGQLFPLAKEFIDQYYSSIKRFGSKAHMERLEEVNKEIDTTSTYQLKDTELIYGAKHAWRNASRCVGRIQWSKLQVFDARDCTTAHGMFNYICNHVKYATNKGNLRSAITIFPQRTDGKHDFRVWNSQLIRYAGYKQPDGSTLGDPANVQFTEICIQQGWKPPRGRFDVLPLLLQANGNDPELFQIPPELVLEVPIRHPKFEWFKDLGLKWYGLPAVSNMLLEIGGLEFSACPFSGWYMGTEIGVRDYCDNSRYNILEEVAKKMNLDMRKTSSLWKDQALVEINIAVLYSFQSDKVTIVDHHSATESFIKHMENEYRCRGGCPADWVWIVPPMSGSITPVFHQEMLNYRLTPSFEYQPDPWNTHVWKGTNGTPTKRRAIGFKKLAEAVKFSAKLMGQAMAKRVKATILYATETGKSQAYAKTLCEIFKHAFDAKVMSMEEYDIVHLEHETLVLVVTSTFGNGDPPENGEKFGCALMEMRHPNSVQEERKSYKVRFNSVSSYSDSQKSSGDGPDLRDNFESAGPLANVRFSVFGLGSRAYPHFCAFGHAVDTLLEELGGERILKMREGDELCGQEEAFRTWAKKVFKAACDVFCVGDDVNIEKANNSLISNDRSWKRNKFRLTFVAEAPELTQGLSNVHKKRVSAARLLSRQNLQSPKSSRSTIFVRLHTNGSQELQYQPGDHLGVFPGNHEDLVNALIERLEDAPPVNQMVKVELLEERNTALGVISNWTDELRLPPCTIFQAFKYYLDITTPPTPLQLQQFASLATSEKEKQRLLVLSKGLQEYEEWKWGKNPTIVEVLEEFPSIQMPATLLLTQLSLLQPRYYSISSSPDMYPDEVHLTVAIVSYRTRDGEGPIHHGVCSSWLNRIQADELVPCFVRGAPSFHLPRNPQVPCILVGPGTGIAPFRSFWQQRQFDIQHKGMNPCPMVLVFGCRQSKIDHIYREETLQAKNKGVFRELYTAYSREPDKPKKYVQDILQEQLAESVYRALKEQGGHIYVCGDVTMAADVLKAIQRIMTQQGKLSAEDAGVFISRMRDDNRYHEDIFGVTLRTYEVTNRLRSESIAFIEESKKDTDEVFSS
Protocol: (§1) The NOS1 and NOS2 IC50's and Kd's for each NOS inhibitor were determined using purified recombinant full-length human NOS1 and NOS2. The cLogP value for each NOS inhibitor was determined using the CLOGP computer program (BioByte, Claremont, Calif.). […] Linear regression was used to examine the correlation between the IC50, Kd and cLogP values and ED50 values.
(§2) We determined the dissociation constant for NOS inhibitor binding (Kd) to purified recombinant and NOS2.

[3] = target: T2, purified human NOS2 (Homo sapiens, UniProt P35228); experiment: Inhibition of purified NOS2 enzyme activity; type: biochemical; settings: mean ± SEM, N = 3
T2 construct: determined using purified recombinant full-length human NOS1 and NOS2
T2 sequence (P35228 whole entry): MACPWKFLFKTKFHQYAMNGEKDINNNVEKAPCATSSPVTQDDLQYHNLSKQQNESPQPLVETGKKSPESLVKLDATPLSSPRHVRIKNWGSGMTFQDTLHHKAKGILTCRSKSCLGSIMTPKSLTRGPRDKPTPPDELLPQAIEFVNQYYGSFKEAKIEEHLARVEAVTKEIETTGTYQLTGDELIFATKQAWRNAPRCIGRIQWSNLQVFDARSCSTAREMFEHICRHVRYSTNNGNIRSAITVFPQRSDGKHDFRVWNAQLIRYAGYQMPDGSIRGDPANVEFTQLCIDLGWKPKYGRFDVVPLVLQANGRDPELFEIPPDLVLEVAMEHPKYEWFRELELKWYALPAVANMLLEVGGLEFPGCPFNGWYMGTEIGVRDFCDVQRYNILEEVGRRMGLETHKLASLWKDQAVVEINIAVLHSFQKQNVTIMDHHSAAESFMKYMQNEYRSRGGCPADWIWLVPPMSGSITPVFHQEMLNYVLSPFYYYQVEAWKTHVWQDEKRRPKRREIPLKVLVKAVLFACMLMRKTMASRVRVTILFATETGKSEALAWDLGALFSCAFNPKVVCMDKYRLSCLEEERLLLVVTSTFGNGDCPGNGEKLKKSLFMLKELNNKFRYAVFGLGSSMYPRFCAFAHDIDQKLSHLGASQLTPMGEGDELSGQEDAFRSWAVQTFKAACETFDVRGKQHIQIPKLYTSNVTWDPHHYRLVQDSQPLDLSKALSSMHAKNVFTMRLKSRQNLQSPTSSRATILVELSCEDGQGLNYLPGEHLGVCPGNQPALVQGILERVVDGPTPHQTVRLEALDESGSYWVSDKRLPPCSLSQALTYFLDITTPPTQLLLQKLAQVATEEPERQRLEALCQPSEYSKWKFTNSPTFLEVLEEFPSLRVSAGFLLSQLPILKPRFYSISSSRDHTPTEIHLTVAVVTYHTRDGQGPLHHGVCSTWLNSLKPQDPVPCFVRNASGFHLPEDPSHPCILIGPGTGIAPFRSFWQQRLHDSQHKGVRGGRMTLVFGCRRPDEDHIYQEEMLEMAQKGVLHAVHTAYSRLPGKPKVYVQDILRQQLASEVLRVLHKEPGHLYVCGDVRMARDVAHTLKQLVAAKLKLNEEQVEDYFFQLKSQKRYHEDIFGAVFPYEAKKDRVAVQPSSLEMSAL
Protocol: as §1, §2

[4] = test system: freshly-isolated CLL cells; experiment: Exogenous NO donors and drugs on freshly-isolated CLL cells (apoptosis and death); type: cell-based, human; settings: for NO / DETA-NO interaction with the agent's activity on CLL cells: combination of the agent with NO donor
Excerpt: We next wanted to examine CLL cells. These malignant cells differ in many ways from ANLL and normal hematopoietic. In addition to their different lineage, they are unique in that they have a very low […], exist primary in the G0 phase of the cell cycle, and have defective apoptosis.

[5] = 50 mg/kg in mice; cited from earlier work
[6] = test system: CLL cell caspase-3; experiment: CLL cell caspase-3 enzyme activity after culture with AR-R17477; type: cell-based, human; settings: for Mean caspase-3 activity: 4 h culture, N = 3
[7] = test system: CLL cells; experiment: CLL cell apoptosis by Annexin V binding; type: cell-based, human
Protocol: Annexin V binding to CLL cells increased after CLL cell co-culture for 2-6 h.

[8] = test system: HL-60 and U937 cells; experiment: NO donor inhibition of leukemia cell and colony growth; type: cell-based, human
Excerpt: To more closely examine the mechanism of toxicity for myeloid leukemia cells, we did work to determine whether the rate of NO delivery affected its growth inhibition of acute nonlymphocytic leukemia cells. We also wanted to determine whether the NO inhibition of cell growth is associated induction of apoptosis. We treated HL-60 and U937 cells with three compounds that generate the same amount of NO but different rates. […] Furthermore, NO-induced growth inhibition was associated with apoptosis in a rate and concentration-dependent fashion (Reference 39).

[9] = target: T3, purified recombinant rat NOS1 oxygenase domain (Rattus norvegicus, UniProt P29476); experiment: NOS inhibitor binding (Kd) to NOS1
T3 construct: purified recombinant rat NOS1 oxygenase domain
T3 sequence (P29476 1-720 limits assumed): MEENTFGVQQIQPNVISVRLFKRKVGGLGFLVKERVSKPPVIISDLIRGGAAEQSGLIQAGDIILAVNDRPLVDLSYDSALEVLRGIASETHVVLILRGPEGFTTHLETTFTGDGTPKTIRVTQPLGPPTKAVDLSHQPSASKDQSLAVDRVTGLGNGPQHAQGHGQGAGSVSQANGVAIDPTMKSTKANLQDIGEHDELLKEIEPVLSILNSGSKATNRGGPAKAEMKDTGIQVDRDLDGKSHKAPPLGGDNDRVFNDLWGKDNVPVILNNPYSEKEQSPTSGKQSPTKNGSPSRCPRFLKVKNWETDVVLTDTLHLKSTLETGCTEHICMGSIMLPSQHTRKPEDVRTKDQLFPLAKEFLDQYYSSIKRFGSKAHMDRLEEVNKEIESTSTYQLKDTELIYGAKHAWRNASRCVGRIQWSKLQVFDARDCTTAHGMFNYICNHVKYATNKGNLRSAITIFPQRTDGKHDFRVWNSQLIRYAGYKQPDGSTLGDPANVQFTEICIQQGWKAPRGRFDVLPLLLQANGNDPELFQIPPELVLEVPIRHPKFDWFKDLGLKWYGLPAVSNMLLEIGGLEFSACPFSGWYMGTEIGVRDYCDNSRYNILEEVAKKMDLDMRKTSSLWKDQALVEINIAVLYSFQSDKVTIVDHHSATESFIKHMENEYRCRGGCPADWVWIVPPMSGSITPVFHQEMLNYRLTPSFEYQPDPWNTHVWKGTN

[10] = target: T4, purified recombinant human NOS2 oxygenase domain (Homo sapiens, UniProt P35228); experiment: NOS inhibitor binding (Kd) to NOS2
T4 construct: purified recombinant human NOS2 oxygenase domain
T4 sequence (P35228 1-504 limits assumed): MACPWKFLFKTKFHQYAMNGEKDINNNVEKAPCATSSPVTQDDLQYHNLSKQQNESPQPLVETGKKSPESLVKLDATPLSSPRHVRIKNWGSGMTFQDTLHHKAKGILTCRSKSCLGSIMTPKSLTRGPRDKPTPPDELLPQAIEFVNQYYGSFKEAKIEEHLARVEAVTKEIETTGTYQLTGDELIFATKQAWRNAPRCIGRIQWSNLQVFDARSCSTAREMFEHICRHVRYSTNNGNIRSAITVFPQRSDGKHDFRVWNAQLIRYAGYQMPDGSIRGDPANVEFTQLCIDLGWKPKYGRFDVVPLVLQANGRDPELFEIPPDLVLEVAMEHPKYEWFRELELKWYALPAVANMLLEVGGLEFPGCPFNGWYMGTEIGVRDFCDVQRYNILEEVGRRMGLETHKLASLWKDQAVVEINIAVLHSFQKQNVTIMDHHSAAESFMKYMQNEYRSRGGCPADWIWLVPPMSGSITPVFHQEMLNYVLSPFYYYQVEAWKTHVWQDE
Protocol: […] The cLogP value for each NOS inhibitor was determined using the CLOGP computer program (BioByte, Claremont, Calif.). […] Linear regression was used to examine the correlation between the IC50, Kd and cLogP values and ED50 values.
as §2

[11] = test system: HL-60 myeloblastic leukemia cells; experiment: NO drugs on growth of HL-60 myeloblastic leukemia cells; type: cell-based, human; settings: NO delivered from the drug
Excerpt: While studying NO and macrophages progressed in the late 1980s, we hypothesized that NO produced in the BM (bone marrow) would be a modulator of normal and leukemic hematopoiesis. […] The differentiated cells were vacuolated, and had increased expression of nonspecific esterase, CD11b, and CD14.

[12] = test system: normal human BM cells; experiment: NO drugs on colony formation of normal human BM cells; type: cell-based; settings: for Development of marrow colonies: methylcellulose with erythropoietin and colony stimulating factors
Protocol: The effects of NO on the growth and differentiation of normal human BM cells were analyzed (Reference 85). We felt that normal hematopoietic cells, like malignant hematopoietic cells, would be affected by NO. […] NO reduced formation of BFU-E (burst forming unit-erythroid), CFU-E, CFU-GM (colony forming unit-granulocyte/macrophage), and CFU-M (colony forming unit-macrophage). […] In retrospect, we think that the increase in CFU-GM by NO from SNP may be due to alterations in apoptosis secondary to changes in bcl-2 or caspases. None of the noted inhibitions were related to cGMP (cyclic-guanosine monophosphate).

[13] = MTS assay, CLL cell samples from different subjects

In the case of `N=C(N)SCCc1cccc(CCSC(=N)N)c1` [1,3 PB-ITU, S,S′-(1,3-Phenylene-bis(1,2-ethanediyl))bis-isothiourea 2HBr], the EC50 ([1]; Homo sapiens, CLL cell) is reported as 293 ± 26.5 µM, the IC50 [2] is reported as 4.7 ± 0.8 µM and the IC50 [3] is reported as 1.6 ± 0.3 µM.
With `N=C(N)SCCc1ccc(CCSC(=N)N)cc1` [1,4 PB-ITU, S,S′-(1,4-Phenylene-bis(1,2-ethanediyl))bis-isothiourea 2HBr] the EC50 ([1]; Homo sapiens, CLL cell) was 321 ± 38.9 µM.
`O=[N+]([O-])c1cccc2c(Br)n[nH]c12` [3-Bromo-7-NI, 3-Bromo-7-nitroindazole] gave an EC50 ([1]; Homo sapiens, CLL cell) of 225 ± 20 µM.
For `O=c1[nH]cc(F)c(=O)[nH]1` [5-fluorouracil], the “NO / DETA-NO interaction with the agent's activity on CLL cells” value (“NO / DETA-NO interaction” below) [4] was “did not enhance the activity”.
With `O=[N+]([O-])c1cccc2cn[nH]c12` [7-NI, 7-Nitroindazole] the EC50 ([1]; Homo sapiens, CLL cell) was 200 ± 29 µM, the IC50 [2] was 72 ± 16 µM and the IC50 [3] was 45 ± 5.9 µM. The “Effect on anxiety and depression” value [5] was “effective at reducing anxiety and depression” and the Side effects [5] was “mild motor incoordination”.
In the case of `COc1nc(N)nc2c1ncn2[C@@H]1O[C@H](CO)[C@@H](O)[C@@H]1O` [506U78, 2-amino-9-β-D-6-methoxy araguanine], the “NO / DETA-NO interaction” value [4] is reported as “synergized”.
Molecule `CC(=N)NCc1cccc(CN)c1` [1400W, N-(3-(Aminomethyl)benzyl)acetamidine 2HCl] has an EC50 ([1]; Homo sapiens, CLL cell) of 8240 ± 1880 µM.
`CC1CCN=C(N)S1` (stereo not shown) [AMT, 2-Amino-5,6-dihydro-6-methyl-4H-1.3-thiazine HCl] gave an IC50 [2] of 0.092 ± 0.002 µM and an IC50 [3] of 0.054 ± 0.001 µM.
With `Cl.Cl.N=C(Nc1ccc(CCNCc2cccc(Cl)c2)cc1)c1cccs1` [AR-R17477, N-(4-(2-((3-Chlorophenylmethyl)amino)ethyl)phenyl)-2-thiophecarboxamidine dihydrochloride] the “ED50 ranking, FIG. 10” value ([1]; cytotoxicity for CLL cells in vitro) was “lowest ED50”, the EC50 [1, 13] was 7 ± 0.7 µM and the “Mean caspase-3 activity” value ([6]; 5 μM) was 9741 arbitrary fluorescence units. The “Mean caspase-3 activity” value ([6]; 10 μM) was 7474 arbitrary fluorescence units, the “Mean caspase-3 activity” value ([6]; 20 μM) was 8074 arbitrary fluorescence units and the “CLL cell caspase-3 enzyme activity (time course)” value ([6]; co-culture for 4 to 19 h) was “increased”. The “CLL cell caspase-3 enzyme activity (concentration dependence)” value ([6]; various concentrations, 4 h) was “dose-dependent increase”, the CLL cell apoptosis [7] was “induced CLL cell apoptosis” and the “Annexin V binding to CLL cells” value ([7]; co-culture for 2-6 h) was “increased”.
With `NCCN(CCN)/[N+]([O-])=N/O` [DETA-NO, (Z)-1-[N-(2-aminoethyl)-N-(2-ammonioethyl)amino]diazen-1-ium-1,2-diolate-NO] the “Interaction of DETA-NO with fludarabine in killing CLL cells” value ([4]; combination with fludarabine) was “acted synergistically” and the “Inhibition of leukemia cell and colony growth” value [8] was “most potent inhibitor”.
In the case of `NCCNCCN` [DETA], the “Effect on CLL cell apoptosis and death” value [4] is reported as “had no effects”.
For `CCSC(=N)Nc1ccc(C(F)(F)F)cc1` [ETPI, S-Ethyl-N-[4-(trifluoromethyl)phenyl]isothiourea HCl], the EC50 ([1]; Homo sapiens, CLL cell) was 129 ± 20 µM, the IC50 [2] was 7.8 ± 2.5 µM and the IC50 [3] was 1500 ± 240 µM. For the same molecule, the Kd [9] was 0.1 µM and the Kd [10] was 0.5 µM.
Molecule `N=C(N)NCCSSCCNC(=N)N` [GED, Guanidinoethyldisulfide 2H2CO3] has an EC50 ([1]; Homo sapiens, CLL cell) of 317 ± 77 µM, an IC50 [2] of 280 ± 80 µM and an IC50 [3] of 50 ± 9.5 µM.
For `CC(=N)NCCSCC[C@H](N)C(=O)O` [GW274150, (S)-2-Amino-(1-iminoethylamino)-5-thioheptanoic acid], the IC50 [2] was 140 ± 15 µM and the IC50 [3] was 1.8 ± 0.3 µM.
`COC(=O)[C@@H](N)CCCNC(N)=N[N+](=O)[O-]` [L-NAME, N^G-Nitro-L-arginine-methyl ester HCl] gave an EC50 ([1]; Homo sapiens, CLL cell) of 7220 ± 1300 µM, an IC50 [2] of 0.89 ± 0.06 µM and an IC50 [3] of 17 ± 1.5 µM. It also gave a Kd [9] of 0.5 µM and a Kd [10] of 0.6 µM.
Work on `CC(=N)NCCCC[C@H](N)C(=O)O` [L-NIL, L-N^6-(1-Iminoethyl)-lysine] yielded an IC50 [2] of 47 ± 1.2 µM, an IC50 [3] of 2.1 µM and a Kd [9] of 0.7 µM. The Kd [10] was 0.5 µM.
`CCCNC(=N)NCCC[C@H](N)C(=O)O` [N-Propyl-L-arginine, N^5-[Imino(propylamino)methyl]-L-ornithine] showed an IC50 [3] of 146 ± 36 µM and a Kd [10] of 7 µM.
With `N=C(NCCC[C@H](N)CNCCN)N[N+](=O)[O-]` [NAAANG, (4S)-N-(4-Amino-5[aminoethyl]aminopentyl)-N′-nitroguanidine 3TFA] the EC50 ([1]; Homo sapiens, CLL cell) was 5230 ± 3200 µM.
`N=C(N)SCCCN` [S-Aminopropyl ITU, S-(3-Aminopropyl)isothiourea 2HBr] showed an EC50 ([1]; Homo sapiens, CLL cell) of 112 ± 45.5 µM, an IC50 [2] of 3.8 ± 0.5 µM and an IC50 [3] of 1.9 ± 0.2 µM.
For `CCSC(=N)N` [S-Ethyl ITU, S-Ethylisothiourea HBr], the IC50 [2] was 7.7 ± 1.8 µM and the IC50 [3] was 1200 ± 290 µM.
`CSC(=N)N` [S-Methyl ITU, S-methylisothiourea sulfate] gave an EC50 [1, 13] of 3080 ± 423 µM.
For `[NH-]c1c[n+](N2CCOCC2)no1` [SIN-1], the “Growth of HL-60 cells” value [11] was “potently inhibited the growth” and the “Development of marrow colonies” value [12] was “inhibited development of marrow colonies”.
With `CCc1c2c(nc3ccc(O)cc13)-c1cc3c(c(=O)n1C2)COC(=O)[C@]3(O)CC` [SN-38] the “NO / DETA-NO interaction” value [4] was “did not enhance the activity”.
In the case of `FC(F)(F)c1ccccc1-n1ccnc1` [TRIM, 1-(2-Trifluoromethylphenyl)imidazole], the EC50 ([1]; Homo sapiens, CLL cell) is listed as 421 ± 61 µM, the “Effect on anxiety and depression” value [5] is listed as “effective at reducing anxiety and depression” and the Side effects [5] is listed as “mild motor incoordination”.
In the case of `CC1(C)N([O])C(c2ccc(C(=O)O)cc2)=[N+]([O-])C1(C)C` [carboxy-PTIO], the “Cytotoxicity for CLL cells (in words)” value [1] is reported as “not cytotoxic”.
For `O=C(O)CCCc1ccc(N(CCCl)CCCl)cc1` [chlorambucil], the “NO / DETA-NO interaction” value [4] was “did not enhance the activity”.
With `COc1cccc2c1C(=O)c1c(O)c3c(c(O)c1C2=O)C[C@@](O)(C(=O)CO)C[C@@H]3O[C@H]1C[C@H](N)[C@H](O)[C@H](C)O1` [doxorubicin] the “NO / DETA-NO interaction” value [4] was “did not enhance the activity”.
With `Nc1ccn([C@@H]2O[C@H](CO)[C@@H](O)C2(F)F)c(=O)n1` [gemcitabine] the “NO / DETA-NO interaction” value [4] was “did not enhance the activity”.
In the case of `C/C1=C2/[N-][C@H]([C@H](CC(N)=O)[C@@]2(C)CCC(=O)NC[C@@H](C)OP(=O)([O-])O[C@H]2[C@@H](O)[C@@H](n3cnc4cc(C)c(C)cc43)O[C@@H]2CO)[C@]2(C)N=C(/C(C)=C3N=C(/C=C4N=C1[C@@H](CCC(N)=O)C\4(C)C)[C@@H](CCC(N)=O)[C@]\3(C)CC(N)=O)[C@@H](CCC(N)=O)[C@]2(C)CC(N)=O.[Co+3].[OH-]` [hydroxycobalamin], the “Cytotoxicity for CLL cells (in words)” value [1] is reported as “not cytotoxic”.
Work on “Mercaptoethylguanidine sodium succinate [MEG]” yielded an EC50 [1, 13] of 181 ± 36.4 µM.
For S-nitrosoacetylpenicillamine [SNAP], the “Growth of HL-60 cells” value [11] was “potently inhibited the growth”, the “Erythroid and myeloid colonies” value ([12]; isolated CD34+ cells) was “inhibited” and the “Development of marrow colonies” value [12] was “inhibited development of marrow colonies”.
